For one compound, Km results are on record in PMC5187517, “Pectocin M1 (PcaM1) Inhibits Escherichia coli Cell Growth and Peptidoglycan Biosynthesis through Periplasmic Expression” (Antibiotics, 2016).

The assay has as its target T1, pectocin M1 (PcaM1) (Pectobacterium carotovorum, UniProt C6DJ69).
T1 construct: gene PC1_2303; full-length, C-terminal Arg-Ser-His6 tag kept, initiator Met lost; expressed in E. coli C43(DE3) from pMLD365; monomer; theoretical mass 30,401 Da with tag (observed m/z 30,266); plant-like ferredoxin domain plus cytotoxic domain
T1 sequence (C6DJ69 2-268): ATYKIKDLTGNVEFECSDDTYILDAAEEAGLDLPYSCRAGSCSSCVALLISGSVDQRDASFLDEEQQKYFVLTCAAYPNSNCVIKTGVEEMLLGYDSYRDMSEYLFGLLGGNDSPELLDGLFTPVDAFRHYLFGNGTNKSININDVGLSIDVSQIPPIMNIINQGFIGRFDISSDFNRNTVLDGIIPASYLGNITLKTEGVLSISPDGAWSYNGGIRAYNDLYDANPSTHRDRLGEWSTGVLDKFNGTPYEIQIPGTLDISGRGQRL
Put plainly: radiolabelled lipid II hydrolysis, TLC with radioactivity scanner. The class given is biochemical. As to conditions: labelled compound ([14C] in GlcNAc moiety); 100 mM Tris-HCl pH 7.5, 20 mM MgCl2, 150 mM NaCl, 10 mM 2-mercaptoethanol, 0.2% DDM, 37 °C, lipid II 6–100 µM.

As usually defined, the Km is the substrate concentration at which the rate is half of its maximum. In the case of `CC(=O)N[C@H]1[C@H](O[C@H]2[C@H](O[C@H](C)C(=O)N[C@@H](C)C(=O)N[C@H](CCC(=O)N[C@@H](CCC[C@@H](N)C(=O)O)C(=O)N[C@H](C)C(=O)N[C@H](C)C(=O)O)C(=O)O)[C@@H](NC(C)=O)[C@@H](OP(=O)(O)OP(=O)(O)OC/C=C(/C)CC/C=C(/C)CC/C=C(/C)CC/C=C(/C)CC/C=C(/C)CC/C=C(/C)CC/C=C(/C)CC/C=C(/C)CC/C=C(\C)CC/C=C(\C)CCC=C(C)C)O[C@@H]2CO)O[C@H](CO)[C@@H](O)[C@@H]1O` [lipid II, C55-PP-MurNAc(L-Ala-γ-D-Glu-meso-A2pm-D-Ala-D-Ala)-GlcNAc], the Km is 55 µM.
